The values below come from patent US20240208992A1, “MACROCYCLES AS CFTR MODULATORS” (Idorsia Pharmaceuticals Ltd, priority 2021, published 2024).

The target of the assay is human F508del-CFTR (Homo sapiens, UniProt P13569, DEL508-508). The assay can be described thus: F508del-CFTR cell surface expression (corrector activity), DiscoveRx ß-galactosidase complementation chemiluminescence assay in recombinant U2OS cell line.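 For all read-outs here: U2OS cells co-expressing ProLink-tagged F508del-CFTR and a membrane-anchored enzyme acceptor, where more surface CFTR restores β-galactosidase activity measured by chemiluminescence.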 To be noted: for EC50: EC50, F508del-CFTR cell surface expression, U2OS cells, 16h compound incubation, geomean values; for Emax: U2OS, in relation to Emax of corrector lumacaftor (=100%), arithmetic mean values.
Chain of human F508del-CFTR (P13569 with tags, fused parts or gaps DEL508-508): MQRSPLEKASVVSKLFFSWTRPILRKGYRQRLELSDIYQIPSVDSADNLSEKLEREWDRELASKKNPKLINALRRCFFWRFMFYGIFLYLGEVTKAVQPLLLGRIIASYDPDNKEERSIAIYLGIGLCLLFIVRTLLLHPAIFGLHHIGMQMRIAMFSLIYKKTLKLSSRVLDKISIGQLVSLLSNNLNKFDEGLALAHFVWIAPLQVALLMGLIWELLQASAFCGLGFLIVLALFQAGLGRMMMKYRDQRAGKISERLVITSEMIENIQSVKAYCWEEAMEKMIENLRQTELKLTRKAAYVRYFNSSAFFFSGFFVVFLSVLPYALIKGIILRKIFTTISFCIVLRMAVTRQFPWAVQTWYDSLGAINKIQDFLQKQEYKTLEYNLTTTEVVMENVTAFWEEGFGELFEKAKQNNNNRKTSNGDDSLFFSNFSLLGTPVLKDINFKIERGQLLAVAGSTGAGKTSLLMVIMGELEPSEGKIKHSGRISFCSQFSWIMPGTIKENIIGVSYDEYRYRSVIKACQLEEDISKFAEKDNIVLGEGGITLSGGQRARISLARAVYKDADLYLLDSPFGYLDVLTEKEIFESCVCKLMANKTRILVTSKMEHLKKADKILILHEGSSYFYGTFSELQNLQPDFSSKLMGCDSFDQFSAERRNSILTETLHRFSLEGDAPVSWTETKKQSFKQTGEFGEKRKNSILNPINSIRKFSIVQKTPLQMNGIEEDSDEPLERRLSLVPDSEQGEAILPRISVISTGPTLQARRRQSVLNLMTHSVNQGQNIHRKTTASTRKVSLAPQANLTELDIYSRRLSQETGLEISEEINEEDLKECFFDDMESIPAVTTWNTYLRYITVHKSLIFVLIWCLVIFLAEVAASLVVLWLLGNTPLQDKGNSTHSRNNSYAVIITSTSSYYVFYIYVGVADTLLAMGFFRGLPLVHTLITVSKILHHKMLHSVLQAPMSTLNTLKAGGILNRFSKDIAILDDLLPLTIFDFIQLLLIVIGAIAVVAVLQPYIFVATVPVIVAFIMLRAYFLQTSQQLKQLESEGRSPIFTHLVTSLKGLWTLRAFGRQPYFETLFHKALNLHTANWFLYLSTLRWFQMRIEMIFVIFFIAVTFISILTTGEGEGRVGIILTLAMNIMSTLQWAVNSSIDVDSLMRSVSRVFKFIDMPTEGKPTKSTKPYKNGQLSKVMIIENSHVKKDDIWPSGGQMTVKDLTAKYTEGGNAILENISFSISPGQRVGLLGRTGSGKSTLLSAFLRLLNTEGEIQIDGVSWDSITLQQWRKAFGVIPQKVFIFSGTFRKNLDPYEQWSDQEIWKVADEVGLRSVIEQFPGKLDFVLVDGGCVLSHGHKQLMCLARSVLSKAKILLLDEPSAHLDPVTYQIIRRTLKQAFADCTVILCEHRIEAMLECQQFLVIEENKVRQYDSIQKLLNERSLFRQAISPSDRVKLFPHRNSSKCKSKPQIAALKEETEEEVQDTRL

Experimental: The method measures the effect of over-night compound incubation on F508del-CFTR cell surface expression in a recombinant U2OS cell line (DiscoveRx, #93-0987C3). This cell line is engineered to co-express (i) human F508del-CFTR tagged with a Prolink (PK=short ß-galactosidase fragment) and (ii) the remainder of the ß-galactosidase enzyme (Enzyme Acceptor; EA) localized to the plasma membrane. Incubation with compounds that increase PK-tagged F508del-CFTR at the plasma membrane will lead to complementation of the EA fragment to form a functional ß-galactosidase enzyme which is quantified by a chemiluminescence reaction.
The cells are incubated for 5h in the incubator before the addition of 5 μl/well of compound dilution series (5× working stocks in full medium). […] The cells are co-incubated with the compounds for 16h in the incubator at 37° C., 5% CO2. The next day, the cell plates are incubated for 2h at RT in the dark. […] Concentration-response curves are generated using compound-intrinsic maximal efficacy as upper plateau, and from these CRCs compound-intrinsic EC50 values are determined.
The calculated EC50 values may fluctuate depending on the daily assay performance. […] EC50 values from several measurements are given as geomean values. The calculated Emax values may fluctuate depending on the daily assay performance. […] Emax values from several measurements are given as arithmetic mean values.

What is called EC50 is the concentration giving half of the maximal effect. The term Emax denotes the size of the effect at its maximum, as opposed to the concentration needed. On to `CCN1C(=O)C[C@@H](C(=O)NCCc2nc(C3CC3)no2)NC(=O)c2c(cnc3ccccc23)OC[C@@H](Cc2ccccc2)NC(=O)[C@H]2CCCCN2C(=O)[C@@H]1CC(C)C` [Example 646, (9S,13S,19aR,22R)-22-benzyl-N-(2-(3-cyclopropyl-1,2,4-oxadiazol-5-yl)ethyl)-12-ethyl-13-isobutyl-7,11,14,20-tetraoxo-7,8,9,10,11,12,13,14,17,18,19,19a,20,21,22,23-hexadecahydro-16H-pyrido[2′,1′:6,7][1]oxa[4,7,10,14]tetraazacycloheptadecino[17,16-c]quinoline-9-carboxamide], for which the EC50 came to 0.158 µM and the Emax worked out at 201%.

Consider `COc1cccc(CCNC(=O)[C@@H]2CC(=O)N(C)[C@@H](CC(C)C)C(=O)N(C)CC(=O)N[C@H](Cc3ccccc3)COc3cnc(OC)cc3C(=O)N2)c1` [Example 647, (3R,9S,13S)-3-benzyl-9-isobutyl-17-methoxy-N-(3-methoxyphenethyl)-7,10-dimethyl-5,8,11,15-tetraoxo-2,3,4,5,6,7,8,9,10,11,12,13,14,15-tetradecahydropyrido[4,3-p][1]oxa[4,7,10,14]tetraazacycloheptadecine-13-carboxamide], for which the EC50 turned out to be 0.82 µM and the Emax came out at 182%.

With `COc1cc2c(cn1)OC[C@@H](Cc1ccccc1)NC(=O)C1(CC1)N(C)C(=O)[C@H](CC(C)C)N(C)C(=O)C[C@@H](C(=O)NCCc1cc(C3CC3)no1)NC2=O` [Example 648, (3′R,9′S,13′S)-3′-benzyl-N-(2-(3-cyclopropylisoxazol-5-yl)ethyl)-9′-isobutyl-17′-methoxy-7′,10′-dimethyl-5′,8′,11′,15′-tetraoxo-2′,3′,4′,5′,8′,9′,10′,11′,12′,13′,14′,15′-dodecahydro-7′H-spiro[cyclopropane-1,6′-pyrido[4,3-p][1]oxa[4,7,10,14]tetraazacycloheptadecine]-13′-carboxamide], the EC50 worked out at 0.748 µM and the Emax was 159%.

For `COc1cc2c(cn1)OC[C@@H](Cc1ccccc1)NC(=O)C1(CC1)N(C)C(=O)[C@H](CC(C)C)N(C)C(=O)C[C@@H](C(=O)NCCc1noc(C3CC3)n1)NC2=O` [Example 649, (3′R,9′S,13′S)-3′-benzyl-N-(2-(5-cyclopropyl-1,2,4-oxadiazol-3-yl)ethyl)-9′-isobutyl-17′-methoxy-7′,10′-dimethyl-5′,8′,11′,15′-tetraoxo-2′,3′,4′,5′,8′,9′,10′,11′,12′,13′,14′,15′-dodecahydro-7′H-spiro[cyclopropane-1,6′-pyrido[4,3-p][1]oxa[4,7,10,14]tetraazacycloheptadecine]-13′-carboxamide], the EC50 came to 0.908 µM and the Emax stood at 149%.

With `COc1cccc(CCNC(=O)[C@@H]2CC(=O)N(C)[C@@H](CC(C)C)C(=O)N(C)C3(CC3)C(=O)N[C@H](Cc3ccccc3)COc3cnc(OC)cc3C(=O)N2)c1` [Example 650, (3′R,9′S,13′S)-3′-benzyl-9′-isobutyl-17′-methoxy-N-(3-methoxyphenethyl)-7′,10′-dimethyl-5′,8′,11′,15′-tetraoxo-2′,3′,4′,5′,8′,9′,10′,11′,12′,13′,14′,15′-dodecahydro-7′H-spiro[cyclopropane-1,6′-pyrido[4,3-p][1]oxa[4,7,10,14]tetraazacycloheptadecine]-13′-carboxamide], the EC50 turned out to be 0.596 µM and the Emax was 214%.

For `CC(C)C[C@H]1C(=O)N2CCCC[C@@H]2C(=O)N[C@H](Cc2ccccc2)COc2cccc(F)c2C(=O)N[C@H](C(=O)NCCc2ccc(-n3nccn3)cc2)CC(=O)N1C` [Example 651, (7S,11S,20R,22aR)-N-(4-(2H-1,2,3-triazol-2-yl)phenethyl)-20-benzyl-14-fluoro-7-isobutyl-8-methyl-6,9,13,22-tetraoxo-1,3,4,6,7,8,9,10,11,12,13,19,20,21,22,22a-hexadecahydro-2H-benzo[p]pyrido[2,1-f][1]oxa[4,7,10,14]tetraazacycloheptadecine-11-carboxamide], the EC50 is 0.375 µM and the Emax was 127%.

In the case of `[2H]C1([2H])Oc2ccc3c(c2O1)C(=O)N[C@H](C(=O)NCCc1ccc(-n2nccn2)cc1)CC(=O)N(C)[C@@H](CC(C)C)C(=O)N1CCCC[C@@H]1C(=O)N[C@H](Cc1ccccc1)CO3` [Example 653, (8S,12S,18aR,21R)-N-(4-(2H-1,2,3-triazol-2-yl)phenethyl)-21-benzyl-12-isobutyl-11-methyl-6,10,13,19-tetraoxo-6,7,8,9,10,11,12,13,16,17,18,18a,19,20,21,22-hexadecahydro-15H-[1,3]dioxolo[4′,5′:5,6]benzo[1,2-p]pyrido[2,1-f][1]oxa[4,7,10,14]tetraazacycloheptadecine-4,4-d2-8-carboxamide], the 50% effective concentration (EC50) came to 0.332 µM and the Emax was determined as 140%.

As to `Cc1cc(CCNC(=O)[C@@H]2CC(=O)N(C)[C@@H](CC(C)C)C(=O)N(C)C3(CC3)C(=O)N[C@H](Cc3ccccc3)COc3ccc4ccccc4c3C(=O)N2)on1` [Example 654, (3′S,7′S,13′R)-13′-benzyl-7′-isobutyl-6′,9′-dimethyl-N-(2-(3-methylisoxazol-5-yl)ethyl)-1′,5′,8′,11′-tetraoxo-2′,3′,4′,5′,6′,7′,8′,9′,11′,12′,13′,14′-dodecahydro-1′H-spiro[cyclopropane-1,10′-naphtho[1,2-p][1]oxa[4,7,10,14]tetraazacycloheptadecine]-3′-carboxamide], the EC50 stood at 0.29 µM and the Emax came to 330%.

For the compound `CC(C)C[C@H]1C(=O)N2CCCC[C@@H]2C(=O)N[C@H](Cc2ccccc2)COc2ccc3ncc(F)cc3c2C(=O)N[C@H](C(=O)NCCc2cc(C3CC3)no2)CC(=O)N1C` [Example 655, (9S,13S,19aR,22R)-22-benzyl-N-(2-(3-cyclopropylisoxazol-5-yl)ethyl)-5-fluoro-13-isobutyl-12-methyl-7,11,14,20-tetraoxo-7,8,9,10,11,12,13,14,17,18,19,19a,20,21,22,23-hexadecahydro-16H-pyrido[2′,1′:6,7][1]oxa[4,7,10,14]tetraazacycloheptadecino[16,17-f]quinoline-9-carboxamide], the EC50 turned out to be 0.15 µM and the Emax is 318%.

Take `COc1nc(C)cc2c1C(=O)N[C@H](C(=O)NCCc1nc(C3CC3)no1)CC(=O)N(C)[C@@H](CC(C)C)C(=O)N1CCCC[C@@H]1C(=O)N[C@H](Cc1ccccc1)CO2` [Example 656, (7S,11S,17aR,20R)-20-benzyl-N-(2-(3-cyclopropyl-1,2,4-oxadiazol-5-yl)ethyl)-11-isobutyl-4-methoxy-2,10-dimethyl-5,9,12,18-tetraoxo-5,6,7,8,9,10,11,12,15,16,17,17a,18,19,20,21-hexadecahydro-14H-dipyrido[2,1-f:3′,4′-p][1]oxa[4,7,10,14]tetraazacycloheptadecine-7-carboxamide]: the EC50 was found to be 0.357 µM and the Emax was found to be 327%.

Consider `[2H]C([2H])([2H])Oc1nc(C)cc2c1C(=O)N[C@H](C(=O)NCCc1nc(C3CC3)no1)CC(=O)N(C)[C@@H](CC(C)C)C(=O)N1CCCC[C@@H]1C(=O)N[C@H](Cc1ccccc1)CO2` [Example 657, (7S,11S,17aR,20R)-20-benzyl-N-(2-(3-cyclopropyl-1,2,4-oxadiazol-5-yl)ethyl)-11-isobutyl-4-(methoxy-d3)-2,10-dimethyl-5,9,12,18-tetraoxo-5,6,7,8,9,10,11,12,15,16,17,17a,18,19,20,21-hexadecahydro-14H-dipyrido[2,1-f:3′,4′-p][1]oxa[4,7,10,14]tetraazacycloheptadecine-7-carboxamide], for which the EC50 is 0.347 µM and the Emax came out at 291%.

Turning to `COc1nc(C)cc2c1C(=O)N[C@H](C(=O)NCCc1cc(C3CC3)no1)CC(=O)N(C)[C@@H](CC(C)C)C(=O)N1CCCC[C@@H]1C(=O)N[C@H](Cc1ccccc1)CO2` [Example 658, (7S,11S,17aR,20R)-20-benzyl-N-(2-(3-cyclopropylisoxazol-5-yl)ethyl)-11-isobutyl-4-methoxy-2,10-dimethyl-5,9,12,18-tetraoxo-5,6,7,8,9,10,11,12,15,16,17,17a,18,19,20,21-hexadecahydro-14H-dipyrido[2,1-f:3′,4′-p][1]oxa[4,7,10,14]tetraazacycloheptadecine-7-carboxamide], the EC50 was found to be 0.283 µM and the Emax is 300%.

For `[2H]C([2H])([2H])Oc1nc(C)cc2c1C(=O)N[C@H](C(=O)NCCc1cc(C3CC3)no1)CC(=O)N(C)[C@@H](CC(C)C)C(=O)N1CCCC[C@@H]1C(=O)N[C@H](Cc1ccccc1)CO2` [Example 659, (7S,11S,17aR,20R)-20-benzyl-N-(2-(3-cyclopropylisoxazol-5-yl)ethyl)-11-isobutyl-4-(methoxy-d3)-2,10-dimethyl-5,9,12,18-tetraoxo-5,6,7,8,9,10,11,12,15,16,17,17a,18,19,20,21-hexadecahydro-14H-dipyrido[2,1-f:3′,4′-p][1]oxa[4,7,10,14]tetraazacycloheptadecine-7-carboxamide], the EC50 came to 0.359 µM and the Emax is 325%.

Regarding `CC(C)C[C@H]1C(=O)N2CCCC[C@@H]2C(=O)N[C@H](Cc2ccccc2)COc2cnc3cccc(F)c3c2C(=O)N[C@H](C(=O)NCCc2cc(C3CC3)no2)CC(=O)N1C` [Example 660, (9S,13S,19aR,22R)-22-benzyl-N-(2-(3-cyclopropylisoxazol-5-yl)ethyl)-6-fluoro-13-isobutyl-12-methyl-7,11,14,20-tetraoxo-7,8,9,10,11,12,13,14,17,18,19,19a,20,21,22,23-hexadecahydro-16H-pyrido[2′,1′:6,7][1]oxa[4,7,10,14]tetraazacycloheptadecino[17,16-c]quinoline-9-carboxamide], the EC50 worked out at 0.091 µM and the Emax came out at 358%.
